For data set [1], the system named is Arabidopsis WT seedlings. Briefly: ROS assay (luminol), WT seedlings. The conditions noted are these: for ROS production, total luminescence (Fig. 2h): WT seedlings; for ROS production, total luminescence (Fig. 3f): WT. The data set is classed as in vivo, Arabidopsis thaliana. As to the method:
ROS burst was determined by a luminol-based assay. […] Then, ddH2O was replaced by 200 µL of reaction solution containing 50 µM of luminol, and 10 µg/mL of horseradish peroxidase (Sigma-Aldrich) supplemented with or without 100 nM or 1 μM peptide. Luminescence was measured immediately after adding the solution with a luminometer (Glomax 20/20n, Promega) with a one-second interval for 15 min. The total values of ROS production were indicated as means of the relative light units (RLUs).

For data set [2], the system named is WRKY30, WRKY33 and CYP81F2 expression, mik2 seedlings. Put plainly: RT-qPCR of defense genes, mik2 mutants. In kind it is in vivo, Arabidopsis thaliana. (In general: In qPCR the cycle at which signal appears reflects the starting amount.)

For the sequence “PNGDIFTGPSGSGHGGGR [SCOOP10B, synthesized SCOOP peptide corresponding to the SxS motif]”, the “potency in triggering PTI responses” value in data set [1] (Ca^2+, ROS, MAPK, compared with other SCOOPs) is given as “more potent activities than others in triggering PTI responses”. Besides, the results for the “ROS production, total luminescence (Fig. 2h)” value in data set [1] (repeat 1), in data set [1] (repeat 2) and in data set [1] (repeat 3) were 9151950, 10580582 and 7374543, respectively. For the same sequence, the “ROS production, total luminescence (Fig. 3f)” value in data set [1] (repeat 1) worked out at 36200000; in data set [1] (repeat 2), 29800000; in data set [1] (repeat 3) it was 21300000. In addition, the “CYP81F2 expression (Fig. 3i)” value in data set [2] (mik2-1, repeat 1) is 1.45; in data set [2] (mik2-1, repeat 2), 1.97; in data set [2] (mik2-1, repeat 3), 3.18; in data set [2] (mik2-1, repeat 4) it was 1.68; in data set [2] (mik2-2, repeat 1), 1.42; in data set [2] (mik2-2, repeat 2), 2.13. In addition, the “CYP81F2 expression (Fig. 3i)” value in data set [2] (mik2-2, repeat 3) amounted to 3.67; in data set [2] (mik2-2, repeat 4) it was 5.95. In addition, in data set [2] (mik2 mutants, 1 µM, 1 h, RT-qPCR), the “WRKY30, WRKY33 and CYP81F2 expression” value is reported as “abolished in mik2 mutants”.

(Values after publication PMC8448819, “The Arabidopsis MIK2 receptor elicits immunity by sensing a conserved signature from phytocytokines and microbes” (Nature Communications, 2021).)
